For experiment [1], the target named is T1, thymine DNA glycosylase (TDG) (Homo sapiens, UniProt Q13569). Put plainly: radioactive DNA glycosylase assay with purified recombinant TDG; TDG/APE1 molecular beacon assay (dose-dependent); 5caC increase in cells. The format is biochemical.
Experiment [2] deals with T1, thymine DNA glycosylase (TDG). Put plainly: molecular beacon screen with recombinant TDG, confirmed in radioactive DNA glycosylase assay. It counts as biochemical.

T1 sequence (Q13569 whole entry): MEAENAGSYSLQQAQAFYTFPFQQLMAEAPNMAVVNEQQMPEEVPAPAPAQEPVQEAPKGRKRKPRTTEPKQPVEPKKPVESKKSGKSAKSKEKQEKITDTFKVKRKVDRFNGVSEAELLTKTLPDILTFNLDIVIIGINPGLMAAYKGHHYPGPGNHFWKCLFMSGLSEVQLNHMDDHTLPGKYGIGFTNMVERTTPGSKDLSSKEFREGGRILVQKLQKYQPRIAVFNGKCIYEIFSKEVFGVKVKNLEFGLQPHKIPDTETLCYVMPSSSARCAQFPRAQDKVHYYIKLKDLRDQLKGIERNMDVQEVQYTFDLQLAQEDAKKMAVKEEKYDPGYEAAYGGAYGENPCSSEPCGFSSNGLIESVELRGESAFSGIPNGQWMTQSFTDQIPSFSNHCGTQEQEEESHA

For the compound `Cc1cc(C(C#N)c2ccc(Cl)cc2)c(Cl)cc1NC(=O)c1cc(I)cc(I)c1O` (stereo not drawn) [closantel], the “radioactive DNA glycosylase assay with purified recombinant TDG; TDG/APE1 molecu” value in experiment [1] is “including closantel, juglone, and cefixime, were confirmed as TDG inhibitors in a standard, radioactive DNA glycosylase assay”.
On to `O=C1C=CC(=O)c2c(O)cccc21` [juglone], for which, in experiment [1], the “radioactive DNA glycosylase assay with purified recombinant TDG; TDG/APE1 molecu” value was “including closantel, juglone, and cefixime, were confirmed as TDG inhibitors in a standard, radioactive DNA glycosylase assay”.
For `C=CC1=C(C(=O)O)N2C(=O)[C@@H](NC(=O)/C(=N\OCC(=O)O)c3csc(N)n3)[C@H]2SC1` [cefixime], the “molecular beacon screen with recombinant TDG, confirmed in radioactive DNA glyco” value in experiment [2] was “including closantel, juglone, and cefixime, were confirmed as TDG inhibitors in a standard, radioactive DNA glycosylase assay”.

These data come from publication PMC6563616, “Thymine DNA glycosylase as a novel target for melanoma” (Oncogene, 2019).
